Test results from patent US20110150767A1, “ALPHA-SUBSTITUTED AND ALPHA-UNSUBSTITUTED AROMATIC AMINO ACID DERIVATIVES AND COMPOSITIONS THEREOF FOR USE TO TREAT, DIAGNOSE, OR MONITOR A MEDICAL CONDITION” (priority 2009, published 2011).

Key:
[1] = target: T1, human L-type amino acid transporter 2 (LAT2; S2-hLAT2 cells) (Homo sapiens, UniProt Q9UHI5); experiment: Inhibition of L-[14C]leucine uptake in S2-LAT2 cells; type: cell-based; conditions: inhibition of 1.0 μM L-[14C]leucine uptake, 1.0 min, 37° C., NI = no inhibition at 100 μM
T1 construct: expressed in transfected cells; host or cells: S2 cells (S2-hLAT2 / S2-LAT2); mammalian cell line described in Morimoto et al., J Pharmacol Sci 2008, 108, 505-516
T1 sequence (Q9UHI5 1-535): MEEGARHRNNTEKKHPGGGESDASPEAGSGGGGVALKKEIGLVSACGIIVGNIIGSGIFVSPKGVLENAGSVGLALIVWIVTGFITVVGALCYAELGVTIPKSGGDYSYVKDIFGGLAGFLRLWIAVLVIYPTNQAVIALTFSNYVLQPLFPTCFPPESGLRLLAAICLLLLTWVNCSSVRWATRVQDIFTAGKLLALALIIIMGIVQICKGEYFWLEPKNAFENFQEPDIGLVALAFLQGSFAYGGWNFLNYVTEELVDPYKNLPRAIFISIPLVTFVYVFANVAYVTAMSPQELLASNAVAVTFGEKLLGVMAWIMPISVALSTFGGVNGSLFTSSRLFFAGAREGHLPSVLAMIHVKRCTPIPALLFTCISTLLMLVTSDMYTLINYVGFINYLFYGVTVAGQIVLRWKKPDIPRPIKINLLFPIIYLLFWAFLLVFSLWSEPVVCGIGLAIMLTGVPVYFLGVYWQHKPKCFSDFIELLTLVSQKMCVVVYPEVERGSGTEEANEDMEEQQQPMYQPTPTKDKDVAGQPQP
T1 sequence (P08195 1-529 partner): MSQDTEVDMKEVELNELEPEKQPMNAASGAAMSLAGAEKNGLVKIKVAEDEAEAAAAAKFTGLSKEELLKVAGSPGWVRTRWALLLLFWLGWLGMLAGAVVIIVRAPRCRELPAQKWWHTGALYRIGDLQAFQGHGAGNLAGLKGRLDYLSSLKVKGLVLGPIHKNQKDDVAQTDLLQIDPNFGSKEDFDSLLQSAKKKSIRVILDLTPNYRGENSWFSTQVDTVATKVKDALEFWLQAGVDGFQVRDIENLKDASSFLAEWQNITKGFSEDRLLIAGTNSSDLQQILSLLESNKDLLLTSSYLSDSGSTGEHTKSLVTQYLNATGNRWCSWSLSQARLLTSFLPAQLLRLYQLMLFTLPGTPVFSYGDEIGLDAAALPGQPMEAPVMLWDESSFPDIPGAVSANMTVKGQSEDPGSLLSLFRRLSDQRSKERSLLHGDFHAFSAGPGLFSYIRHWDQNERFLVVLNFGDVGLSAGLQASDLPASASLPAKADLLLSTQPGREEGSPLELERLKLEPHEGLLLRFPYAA
Protocol: (§1) The establishment and characterization of mammalian cell lines expressing human L-type amino acid transporterss (i.e. S2-hLAT1 and S2-hLAT2) has been previously described (Morimoto et al., Journal of Pharmacological Sciences, 2008, 108, 505-516).
(§2) General test procedures are as follows: All test compounds were dissolved in dimethyl sulfoxide (DMSO) to prepare stock solutions at the concentrations of 0.05, 0.5, 5.0 and 50 mM; next, these stock solutions were used and diluted with uptake solution to make final test concentrations of 0.10, 1.00, 10.0 and 100 μM, respectively. Therefore, all compounds used for uptake experiment were in uptake solution containing 0.2% DMSO; experiments are performed in triplicate for each concentration. For control uptake, only DMSO was added into the uptake solution to a final concentration of 0.2%.
(§3) S2-LAT1 and S2-LAT2 cells were seeded (1.3×10^5 cells/well) into 24-well plates and cultured at 33° C. (5% CO2) for 2-3 days until confluent (90%-100% confluence). Uptake experiments were performed at 37° C. The culture medium was removed and washed 3 times with uptake solution (37° C.; Hank's Na^+ free buffer consisting of 125 mM choline chloride, 4.8 mM KCl, 1.3 mM CaCl2, 1.2 mM MgCl2, 25.0 mM HEPES, and 5.0 mM Tris, pH 7.4, supplemented with D-glucose (5.6 mM). The cells were equilibrated in uptake solution (300 μL; 37° C.) for 12 min. The equilibrated solution was removed and uptake solution containing radio-labeled compound (1.0 μM L-[^14C] Leucine) with or without test compound (300 μL) was added to the cells (1.0 min). The test solution was removed and the cells washed 3 times with ice-cold uptake solution. The cells are then solubilized with 0.1N NaOH (0.5 mL) and transferred to scintillation vials. Liquid scintillation fluid (3.0 mL; aquasol-2) was added, mixed and substrate accumulation was measured by counting radioactivity via liquid scintillation counting (LSC; LSC6100, Aloka, Tokyo). The uptake value and % of inhibition were calculated to afford IC50 values.

[2] = target: T2, human L-type amino acid transporter 1 (LAT1; S2-hLAT1 cells) (Homo sapiens, UniProt Q01650); experiment: Inhibition of L-[14C]leucine uptake in S2-LAT1 cells; type: cell-based; conditions: inhibition of 1.0 μM L-[14C]leucine uptake, 1.0 min, 37° C., NI = no inhibition at 100 μM
T2 construct: expressed in transfected cells; host or cells: S2 cells (S2-hLAT1 / S2-LAT1); mammalian cell line described in Morimoto et al., J Pharmacol Sci 2008, 108, 505-516
Protocol: as §1, §2, §3

T2 sequence (Q01650 whole entry, one chain of several): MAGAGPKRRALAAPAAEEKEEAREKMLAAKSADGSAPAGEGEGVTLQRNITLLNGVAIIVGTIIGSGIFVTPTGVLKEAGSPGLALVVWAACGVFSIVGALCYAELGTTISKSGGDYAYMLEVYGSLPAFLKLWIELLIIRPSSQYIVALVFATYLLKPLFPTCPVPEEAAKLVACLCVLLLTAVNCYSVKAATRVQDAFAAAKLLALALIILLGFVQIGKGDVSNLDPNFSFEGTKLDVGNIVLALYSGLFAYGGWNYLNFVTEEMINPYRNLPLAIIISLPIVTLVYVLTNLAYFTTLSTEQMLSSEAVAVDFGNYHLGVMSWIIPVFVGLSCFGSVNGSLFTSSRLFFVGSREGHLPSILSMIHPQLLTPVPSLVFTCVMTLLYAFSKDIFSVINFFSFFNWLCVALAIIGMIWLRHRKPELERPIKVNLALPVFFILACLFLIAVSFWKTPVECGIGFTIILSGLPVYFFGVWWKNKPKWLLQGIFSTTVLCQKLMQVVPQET

Work on `CCOc1ccc(COc2c(Cl)cc(C[C@H](N)C(=O)O)cc2Cl)cc1OCC` [compound 141] yielded an IC50 [1] of 44.9 µM and an IC50 [2] of 2.9 µM.
